Laboratory results reported in publication PMC6471427, “Halogen-Substituted Triazolethioacetamides as a Potent Skeleton for the Development of Metallo-β-Lactamase Inhibitors” (Molecules, 2019).
Like-named read-outs stand apart in the source and are kept apart here.

Columns and labels:
MβLs = target: MβLs; set-up: method as in PMID 11564740; settings: broad spectrum MβLs inhibitor; read-out: Ki against MβLs; cited from earlier work
VIM-2 = target: T1, VIM-2 (Escherichia coli, UniProt Q5U7L7); experiment: Inhibition of VIM-2 (UV-vis kinetics); type: biochemical; settings: 25 °C, Tris-HCl pH 7.0, 30 min pre-incubation; read-out: IC50 against VIM-2
T1 construct: made in house
Excerpt: (§1) To test whether these halogen-substituted triazolethioacetamides were inhibitors of the MβLs, three subclasses MβLs B1(VIM-2 and NDM-1), B2 (ImiS), and B3 (L1) were expressed and purified as previously described. […] On the whole, triazolethioacetamides containing chlorine (1–8) increase the inhibitory potency slightly on average compared to those containing fluorine (9–12), but the presence of trifluoromethoxy (13) is beneficial to increase the inhibitory activity. […] Furthermore, replacement of two hydrogen at the anilino group with chlorine (4 and 5) or fluorine (12) relatively reduces the inhibitory activity, especially compound 12 with two fluorine at 2,5-position of anilino group.
(§2) The inhibition studies were carried out on an Agilent UV 8453 spectrophotometer at 25 °C using cefazolin as substrate of […], NDM-1, and L1 and imipenem as substrate of ImiS. Inhibitors 1–13 were dissolved in DMSO and then diluted with Tris-HCl, pH 7.0. The substrate concentrations were varied between 25 and 400 μM, and inhibitor concentrations were varied between 125 nM and 1 mΜ. The enzyme and inhibitor were pre-incubated for 30 min before starting the kinetic experiments. The IC50 values for all analyzed compounds were calculated based on the kinetic data. The mode of inhibition was determined by generating Lineweaver-Burk plots of the data, and the Ki was determined by replotting the data for slope and intercept versus […].

ImiS = target: T2, ImiS (Aeromonas veronii, UniProt O31272); experiment: Inhibition of ImiS-catalysed hydrolysis of imipenem (UV-vis kinetics; IC50, Ki, mode); type: biochemical; settings: for Inhibition mode against ImiS: Lineweaver-Burk plots
T2 construct: made in house
Excerpt: as §1, §2

NDM-1 = target: T3, NDM-1 (Klebsiella pneumoniae, UniProt C7C422); experiment: Inhibition of NDM-1 with cefazolin as substrate (UV-vis kinetics); type: biochemical; settings: read-out: IC50 against NDM-1
T3 construct: made in house
Excerpt: as §1, §2

[1] = 25 °C, Tris-HCl pH 7.0, 30 min pre-incubation

T2 sequence (O31272 28-255): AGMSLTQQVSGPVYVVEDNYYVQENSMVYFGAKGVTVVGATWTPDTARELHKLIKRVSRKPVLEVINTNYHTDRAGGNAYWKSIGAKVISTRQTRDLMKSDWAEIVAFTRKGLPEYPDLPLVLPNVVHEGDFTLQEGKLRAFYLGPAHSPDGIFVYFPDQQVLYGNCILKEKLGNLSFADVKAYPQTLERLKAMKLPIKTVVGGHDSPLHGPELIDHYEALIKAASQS
T3 sequence (C7C422 29-270, looked up, species assumed): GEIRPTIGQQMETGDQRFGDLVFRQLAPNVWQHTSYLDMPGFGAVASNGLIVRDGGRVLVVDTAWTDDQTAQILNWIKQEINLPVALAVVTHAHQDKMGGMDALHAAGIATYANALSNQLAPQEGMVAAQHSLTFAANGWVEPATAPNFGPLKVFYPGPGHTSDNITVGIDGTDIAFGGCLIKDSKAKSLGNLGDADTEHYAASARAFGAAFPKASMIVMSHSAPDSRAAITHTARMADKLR

Structure (SMILES) | Ki (MβLs) [µM] | IC50 (VIM-2) [µM] | IC50 (ImiS) [µM] | IC50 (NDM-1; [1]) [nM] | IC50 (NDM-1; value in nM) [nM] | Ki (ImiS) [µM] | Inhibition mode against ImiS (ImiS; imipenem as substrate) | Inhibitory activity against ImiS (in words) (ImiS; imipenem as substrate)
O=C(O)C(S)c1ccccc1 (single isomer, unassigned) [S-isomer, thiomandelic acid] | 1.28 | – | – | – | – | – | – | –
O=C(CSc1nnc(-c2ccccc2O)[nH]1)Nc1ccccc1Cl [Compound 1] | – | > 1000 | 0.032 | 960 ± 70 | – | – | – | –
O=C(CSc1nnc(-c2ccccc2O)[nH]1)Nc1cccc(Cl)c1 [Compound 2] | – | > 1000 | 0.045 ± 0.002 | 170 ± 20 | 170 | – | – | –
O=C(CSc1nnc(-c2ccccc2O)[nH]1)Nc1ccc(Cl)cc1 [Compound 3] | – | > 1000 | 0.051 ± 0.006 | 370 ± 50 | – | – | – | –
O=C(CSc1nnc(-c2ccccc2O)[nH]1)Nc1ccc(Cl)c(Cl)c1 [Compound 4] | – | > 1000 | 0.27 ± 0.02 | > 1e+06 | – | – | – | –
O=C(CSc1nnc(-c2ccccc2O)[nH]1)Nc1ccc(Cl)cc1Cl [Compound 5] | – | > 1000 | 0.16 ± 0.03 | > 1e+06 | – | – | – | –
O=C(CSc1nnc(-c2ccccc2O)[nH]1)Nc1ccc(Cl)cc1[N+](=O)[O-] [Compound 6] | – | > 1000 | 0.78 ± 0.08 | > 1e+06 | – | – | – | –
O=C(CSc1nnc(-c2ccccc2O)[nH]1)Nc1cc(Cl)ccc1[N+](=O)[O-] [Compound 7] | – | > 1000 | 0.2 ± 0.04 | > 1e+06 | – | – | – | –
O=C(CSc1nnc(-c2ccccc2O)[nH]1)Nc1ccc([N+](=O)[O-])cc1Cl [Compound 8] | – | > 1000 | 0.26 ± 0.03 | > 1e+06 | – | – | – | –
O=C(CSc1nnc(-c2ccccc2O)[nH]1)Nc1ccccc1F [Compound 9] | – | > 1000 | 0.072 ± 0.005 | > 1e+06 | – | 0.074 | mixed inhibitors | –
O=C(CSc1nnc(-c2ccccc2O)[nH]1)Nc1cccc(F)c1 [Compound 10] | – | > 1000 | 0.98 ± 0.04 | > 1e+06 | – | – | – | –
O=C(CSc1nnc(-c2ccccc2O)[nH]1)Nc1ccc(F)cc1 [Compound 11] | – | > 1000 | > 50 | > 1e+06 | – | – | – | nearly had no inhibitory activity
O=C(CSc1nnc(-c2ccccc2O)[nH]1)Nc1c(F)cccc1F [Compound 12] | – | 38.9 ± 5 | 15.6 ± 3 | > 1e+06 | – | – | – | –
O=C(CSc1nnc(-c2ccccc2O)[nH]1)Nc1ccc(OC(F)(F)F)cc1 [Compound 13] | – | 2.8 ± 0.3 | 0.23 ± 0.09 | > 1e+06 | – | 0.27 | mixed inhibitors | –
O=C(O)C(S)c1ccccc1 (centres unmarked) [rthiomandelic acid, thiomandelic acid] | 0.09 | – | – | – | – | – | – | –
